From paper PMC3276500, “Caffeic Acid Phenethyl Ester and Its Amide Analogue Are Potent Inhibitors of Leukotriene Biosynthesis in Human Polymorphonuclear Leukocytes” (PLoS ONE, 2012)

Target: T1, 5-lipoxygenase (5-LO) (Homo sapiens, UniProt P09917)
T1 construct: gene ALOX5
T1 sequence (P09917 1-674): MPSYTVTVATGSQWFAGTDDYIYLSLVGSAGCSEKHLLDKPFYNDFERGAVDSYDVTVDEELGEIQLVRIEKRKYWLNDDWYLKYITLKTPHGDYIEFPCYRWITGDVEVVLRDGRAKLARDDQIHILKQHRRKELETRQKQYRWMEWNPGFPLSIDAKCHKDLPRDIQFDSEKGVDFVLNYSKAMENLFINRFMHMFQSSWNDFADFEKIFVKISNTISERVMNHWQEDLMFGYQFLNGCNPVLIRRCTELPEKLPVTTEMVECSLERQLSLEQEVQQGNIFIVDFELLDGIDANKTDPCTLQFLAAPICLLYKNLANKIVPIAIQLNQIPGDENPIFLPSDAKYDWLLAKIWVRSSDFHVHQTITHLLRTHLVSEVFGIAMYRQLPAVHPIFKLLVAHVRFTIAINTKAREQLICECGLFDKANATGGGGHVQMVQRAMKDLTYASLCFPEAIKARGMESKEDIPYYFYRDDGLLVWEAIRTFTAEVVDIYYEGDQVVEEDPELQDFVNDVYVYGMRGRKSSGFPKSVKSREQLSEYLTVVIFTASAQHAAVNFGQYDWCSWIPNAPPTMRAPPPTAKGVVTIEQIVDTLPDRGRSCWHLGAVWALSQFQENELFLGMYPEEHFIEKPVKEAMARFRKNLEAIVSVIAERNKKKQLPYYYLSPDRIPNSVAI
Test: cell-free 5-LO activity assay in lysate supernatant of HEK293 cells stably transfected with 5-LO, RP-HPLC of products
Format: biochemical

SMILES | IC50
O=C(/C=C/c1ccc(O)c(O)c1)OCCc1ccccc1 [compound 1, CAPE] | 130 nM
O=C(/C=C/c1ccc(O)c(O)c1)NCCc1ccccc1 [compound 9] | 2380 nM
